Test system: ZFP64
Test: qPCR relative expression (vs cycle 1, day 1, hour 0) in patients' whole blood
Format: in vivo, human
Conditions: HCC patients; Sorafenib 400 mg added to Resminostat 600 mg
Method: 2.5 ml whole blood from patients was collected in PAXgene™ tubes (BD Biosciences) that contain chemicals to lyse the erythrocytes, stabilize RNA from degradation by RNases and minimize ex vivo changes in gene expression. The samples were incubated at 20° C. to 25° C. for 2 hours and then frozen at −20° C. until purification of total RNA.
Total RNA was isolated from the whole blood samples stabilized in PAXgene™ buffer using a spin column based technique suitable for whole blood samples (like PAXgene™ Blood miRNA Kit or PAXgene™ Blood RNA Kit from Qiagen) according to the manufacturer's instructions. The purification began with a centrifugation step to pellet nucleic acids in the (PAXgene™ Blood RNA) tube. The resuspended pellet was incubated in buffers, optimized for maintenance of RNA stability together with proteinase K to bring about protein digestion. An additional centrifugation through the PAXgene™ Shredder spin column was carried out to homogenize the cell lysate and remove residual cell debris, and the supernatant of the flow-through fraction was transferred to a fresh microcentrifuge tube. Ethanol was added to adjust binding conditions, and the lysate was applied to a PAXgene™ RNA spin column. During a brief centrifugation, RNA was selectively bound to the PAXgene™ silica membrane as contaminants pass through. Remaining contaminants were removed in several efficient wash steps. Between the first and second wash steps, the membrane was treated with DNase I, as described herein below in 1.3 to remove trace amounts of bound DNA. After the wash steps, RNA was eluted in nuclease free water and heat-denatured.
The High-Capacity cDNA Reverse Transcription Kit (Applied Biosystems) was used for reverse transcription of total RNA into single stranded cDNA with the aid of random hexamer primers according to the manufacturer's instructions. Briefly, for the reaction mix total RNA was mixed with random primers in excess, 4 mM dNTP Mix, 2.5 U/reaction, reverse transcriptase and nuclease free water. The reverse transcription took place in a thermal cycler under the following conditions: 25° C. for 10 min, 37° C. for 120 min, 85° C. for 5 min, followed by 4° C. for cooling down the reaction. The reverse transcription can be done in principle as well with other reverse transcriptases, primers and temperature protocols. Whenever possible, 250 ng total RNA were reverse transcribed if not available, lower amounts were used.
Custom TaqMan® Arrays (Applied Biosystems) in Format 16 were designed for the gene expression analysis of biomarkers of the present invention and housekeeping genes as outlined in table 4. These arrays allow for qPCR analysis of 8 samples per card. Of course, all reactions can be done as well by conventional qPCR analysis with specific primers.
The reaction mix was transferred into the reaction chambers by centrifuging twice for 1 minute each at 330 g and 4° C. After sealing, the microfluidic cards were run on an AB7900HT instrument (Applied Biosystems). The software SDS 2.4 (Applied Biosystems) was employed for instrument control, data acquisition and raw data analysis. The plates were run in Relative Quantification (ΔΔCt) mode, and the following temperature profile was used:
This analysis was carried out for each patient separately. The first sample (cycle 1, day 1, hour 0) was used as the reference sample. The ‘exprs’ value indicates relative expression levels (fold change values) for individual samples.
Table 5 contains the median expression level values for treatment day 5 (cycle 1, day 5, hours 0, 2, and 5) at a daily dose of 600 mg or 800 mg Resminostat mesylate salt is given below.

CNC(=O)c1cc(Oc2ccc(NC(=O)Nc3ccc(Cl)c(C(F)(F)F)c3)cc2)ccn1 [sorafenib, reference compound] was tested, and the “Effect of additional administration on ZFP64 expression (FIG. 4b)” value was “does not affect”.

From patent US20160215348A1, “GENE EXPRESSION BIOMARKERS AND THEIR USE FOR DIAGNOSTIC AND PROGNOSTIC APPLICATION IN PATIENTS POTENTIALLY IN NEED OF HDAC INHIBITOR TREATMENT” (4SC AG, priority 2013, published 2016)
